Measurements taken from patent publication EP0147980A2, “A 5-nitro-2-furanyl derivative and its use as an anti-parasitic agent” (Rossignol, Jean François, priority 1983, dated 1985).
“And” between values parts separate entries of the source, which are not always exact repeats. Equal entries are not always repeated.

Columns and labels:
Type in all cases: in vivo
[1] = test system: Schistosoma mansoni; test: Primary prophylactic test (mortality test) against Schistosoma mansoni in mice
Procedure: The primary screening method used to evaluate prophylactic activity against Schistosoma mansoni is a mortality test. Mice are exposed to a massive number of cercariae by tail immersion. In untreated control mice this exposure produces a reproducible mortality pattern with 99+% of the mice dying between 20 and 30 days (mean survival time 24 days). The test compound is administered in a single dose two days after cercarial exposure. A compound is considered active if mice survive to 49 days, at which time they are sacrificed and examined for worms.
The test is of the "prophylactic"-type in the sense that the drug action is on the immature migrating schistosomes and prevents the development of adult worms in the portal circulation.
Mice weighing 18 to 23 grams were exposed to 3500-4500 infective S. mansoni cercariae by tail immersion for 30 minutes, and subsequently housed in groups of five per cage (5 test mice and 5 control mice). Two days after infection, the test compound of the formula (I) was administered subcutaneously as a single 1,280 mg/kg dose suspended in peanut oil to one group of five mice.
Mouse mortality was recorded daily for 49 days after infection. On the 49th day, survivors were sacrificed and the total worm burden was determined by perfusion of the liver and portal circulation (perf-o-suction technique).
Control mice exposed to at least 3500 cercariae and not treated with the test compound (I) experience 99+% mortality, with nearly all deaths occurring between about day 20 and day 30. In treated mice, deaths occurring within one week after drug administration are assumed to be induced by the toxic action of the drug itself, since, control mice rarely die during this period. The survival of drug treated mice to 49 days is interpreted as evidence of drug action which kills or otherwise prevents the development of the migrating immature schistosomes. The- survival of only one mouse has, in our experience, been difficult to reproduce, and, in general, a compound is not considered active unless two or more mice survive to 49 days.

[2] = test system: S. japonicum; test: Primary curative test against S. japonicum in hamsters; settings: 1 g/kg single oral gavage
Source text: The primary curative test evaluates the therapeutic activity of the drug against S. japonicum in hamsters. Interpretation of the test is based upon observation of a shift of worms from the portal and mesenteric veins to the liver under the influence of the test drug. In addition the mortality of the worms found in the liver, portal and mesenteric veins is also an important criteria of effectiveness in establishing the schistosomicidal effectiveness of the drug. Hamsters weighing 150 to 250 grams were exposed to 100 S. japonicum cercariae by the ring method. 35 to 45 days after infection, the test compound (I) was administered as a single […] by oral gavage, the product being suspended in gum syrup. Out of 10 infected animals, 5 were so treated, with 5 being used as control animals. Hamsters were sacrificed three days after treatment; the liver was removed as well as the portal and mesenteric veins, squashed between two slides and the number of live or dead worms in the liver, the portal and mesenteric veins was recorded.

[3] = test system: Schistosoma mansoni; test: Primary curative test against Schistosoma mansoni in hamster
Procedure: The primary curative test evaluates the therapeutic activity of the drug against S. mansoni in hamster. Interpretation of the test is based upon observation of a shift of worms from the portal and mesenteric veins to the liver under the influence of the test drug. Hamsters weighing 150 to 250 grams were exposed to 150-250 S. mansoni cercariae by the ring method. 30 to 35 days after infection, the test drug (compound (I)) was administered as a 200 mg/kg daily dose for four consecutive days. The drug was administered by oral gavage suspended in gum syrup. Hamsters were sacrificed three days after the last drug treatment. The liver was removed, squashed between two slides, and the number of live and dead worms in the liver were recorded. From experience, the total worm burden in the portal circulation of S. mansoni infected hamsters ranges from 20 to 50 worms, i.e., […] of the total number of cercariae injected. Over 80% of these worms reside in the extra-hepatic portal and mesenteric veins. Thus, when the liver is removed in control animals about 10 worms could be counted in the liver.

[4] = Acute oral toxicity study in mice
Procedure: The test chemical was administered as a single 4,000 mg/kg oral dose to five male and five female Swiss mice.

[5] = individual surviving mice (Mouse 1-3) sacrificed day 49, 1,280 mg/kg s.c.
[6] = mean of three surviving mice, day 49, 1,280 mg/kg s.c.
[7] = individual treated hamsters 1-5
[8] = individual hamsters 1-5, 200 mg/kg daily for four consecutive days, oral gavage, sacrificed three days after last treatment, 200 mg/kg

COc1ccc(NC(=O)C=Cc2ccc([N+](=O)[O-])o2)c(C)c1 [compound (I), N-(4-methoxy-2-methylphenyl)-3-(5-nitro-2-furanyl) propenamide]
mice survived until day 49 ([1]; group of five mice, single 1,280 mg/kg subcutaneous dose in peanut oil two days after infection): Three | day of death of the two test mice that died ([1]; group of five mice, single 1,280 mg/kg subcutaneous dose, control mice died at days 19, 22, 25, 28 and 32): 41 days | worm burden, Female [1, 5]: 5 and 7 and 6 | worm burden, Total [1, 5]: 15 and 19 and 16 | worm burden, Male ([1]; individual surviving mice (Mouse 1-3) sacrificed day 49, 1,280 mg/kg s.c., perfusion of liver and portal circulation): 10 (2×) and 12 | worm burden, Female, mean [1, 6]: 6.0 | worm burden, Male, mean [1, 6]: 10.6 | worm burden, Total, mean [1, 6]: 16.6 | activity against the migrating stage of Schistosoma mansoni in mice ([1]; single subcutaneous administration of 1,280 mg/kg, active = two or more mice survive to 49 days): active | shift of worms from the portal and mesenteric veins to the liver [2]: marked shift of the worms from the portal and mesenteric veins to the liver | worms killed on the average in the liver, the portal and mesenteric veins ([2]; average of five treated hamsters): about 86% | No. of worms found, Liver, Female [2, 7]: 7 and 6 (3×) and 4 | No. of worms found, Mesenteric, Female [2, 7]: 5 and 4 (3×) and 2 | No. of worms found, Mesenteric, Male [2, 7]: 7 (2×) and 6 and 4 and 8 | No. of worms found, Portal, Female [2, 7]: 0 | No. of worms found, Portal, Male [2, 7]: 0 | No. of worms found, Liver, Male ([2]; individual treated hamsters 1-5, sacrificed three days after treatment): 8 (2×) and 14 (2×) and 9 | % dead ([2]; worms, individual treated hamsters 1-5, controls 0): 100% (3×) and 70% and 60% | shift of worms from the portal and mesenteric veins to the liver ([3]; 200 mg/kg daily x 4 days oral, parasites in the liver were dead): marked shift of the worms from the portal and mesenteric veins to the liver | effective dose ([3]; for four consecutive days, oral gavage, hamster): 200 mg/kg per day | No. of worms found in the liver, Treated Animals, F [3, 8]: 17 and 6 and 18 and 60 and 54 | No. of worms found in the liver, Treated Animals, M [3, 8]: 17 and 10 (2×) and 50 and 46 | Mean No. of worms found in the liver, Treated Animals, F ([3]; mean of five treated hamsters, 200 mg/kg daily x 4 days oral, controls 12.0): 31.0 | Mean No. of worms found in the liver, Treated Animals, M ([3]; mean of five treated hamsters, 200 mg/kg daily x 4 days oral, controls 15.3): 26.6 | LD50 at 336 h ([4]; mouse, in vivo, po, administered orally in mice): > 4000 mg/kg | clinical observation, weights and macroscopic examination of organs ([4]; single 4,000 mg/kg oral dose, five male and five female Swiss mice, 14 days): no adverse pattern
